SMILES strings stand for the structures.

The target of the experiment is T1, human serum albumin (HSA) (Homo sapiens, UniProt P02768).
T1 construct: gene ALB
T1 sequence (P02768 25-609): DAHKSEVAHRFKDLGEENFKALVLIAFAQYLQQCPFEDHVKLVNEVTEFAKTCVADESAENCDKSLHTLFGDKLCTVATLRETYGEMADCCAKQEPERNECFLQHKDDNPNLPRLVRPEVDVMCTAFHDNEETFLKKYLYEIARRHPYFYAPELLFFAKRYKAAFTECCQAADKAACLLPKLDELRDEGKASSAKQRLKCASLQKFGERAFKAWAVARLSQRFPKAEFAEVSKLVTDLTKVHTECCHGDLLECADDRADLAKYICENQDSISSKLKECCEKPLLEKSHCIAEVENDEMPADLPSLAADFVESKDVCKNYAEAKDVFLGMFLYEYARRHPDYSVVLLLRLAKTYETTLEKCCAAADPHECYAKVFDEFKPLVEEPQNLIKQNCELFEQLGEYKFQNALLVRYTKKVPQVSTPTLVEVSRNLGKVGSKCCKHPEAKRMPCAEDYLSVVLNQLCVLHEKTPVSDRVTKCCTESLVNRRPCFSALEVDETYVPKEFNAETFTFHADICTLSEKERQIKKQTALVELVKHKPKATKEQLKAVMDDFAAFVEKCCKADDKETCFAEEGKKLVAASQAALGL
Kind of experiment: intrinsic fluorescence quenching, modified Stern-Volmer. It is filed as binding. The following applies: 298 K, pH 7.4, 0.1 M Tris, 0.1 M NaCl, 1 µM HSA, ex 280 / em 337 nm; site II (subdomain IIIA), no site marker. From the text: intrinsic fluorescence quenching, modified Stern-Volmer on human serum albumin (HSA)
For `CC(C)(C)CC(=O)N1c2ccc(Cl)cc2C(=O)N(N=Cc2ccccc2)C1c1ccccc1` (centres unmarked) [3a, 3-(Benzylideneamino)-6-chloro-1-(3,3-dimethylbutanoyl)-2-phenyl-2,3-dihydroquinazolin-4(1H)-one], the “Ka (×10^4 M^-1)” value is 2.16 ×10^4 M^−1.
Under `CC(C)(C)CC(=O)N1c2ccc(Cl)cc2C(=O)N(N=Cc2ccc(F)cc2)C1c1ccc(F)cc1` (centres unmarked) [3b, 3-(4-Fluorobenzylideneamino)-6-chloro-1-(3,3-dimethylbutanoyl)-2-(4-fluorophenyl)-2,3-dihydroquinazolin-4 (1H)-one] stands 2.64 ×10^4 M^−1; under `CC(C)(C)CC(=O)N1c2ccc(Cl)cc2C(=O)N(N=Cc2ccc(Cl)cc2)C1c1ccc(Cl)cc1` (centres unmarked) [3c, 3-(4-Chlorobenzylideneamino)-6-chloro-1-(3,3-dimethylbutanoyl)-2-(4-chlorophenyl)-2,3-dihydroquinazolin-4(1H)-one], 3.44 ×10^4 M^−1; under `CC(C)(C)CC(=O)N1c2ccc(Cl)cc2C(=O)N(N=Cc2ccc(Br)cc2)C1c1ccc(Br)cc1` (centres unmarked) [3d, 3-(4-Bromobenzylideneamino)-6-chloro-1-(3,3-dimethylbutanoyl)-2-(4-bromophenyl)-2,3-dihydroquinazolin-4(1H)-one], 4.37 ×10^4 M^−1.
Next, `CC(C)(C)CC(=O)N1c2ccc(Cl)cc2C(=O)N(N=Cc2ccc(I)cc2)C1c1ccc(I)cc1` (centres unmarked) [3e, 3-(4-Iodobenzylideneamino)-6-chloro-1-(3,3-dimethylbutanoyl)-2-(4-iodophenyl)-2,3-dihydroquinazolin-4(1H)-one]: 7.21 ×10^4 M^−1.

The values above are taken from publication PMC6268991, “Impact of Halogen Substituents on Interactions between 2-Phenyl-2,3-dihydroqulinazolin-4(1H)-one Derivatives and Human Serum Albumin” (Molecules, 2012).
